# According to US20200216449A1, “4-Sulfur Substituted Podophyllotoxin Derivative and Preparation Method Therefor and Use Thereof” (priority 2017, published 2020):
# Tests used:
# HeLa = test: MTT test for inhibition of tumor cells, HeLa; assay type: cell-based; conditions: 48 h
# Procedure: HepG2, HeLa cell lines and human normal liver cells HL-7702 in a logarithmic growth period were centrifuged at 1000 rpm for 5 min, and the supernatant was discarded, the cells were suspended with a suitable amount of culture medium to adjust the cell concentration to 3.5×10^4/well, the cells were seeded in 96-well plates, and the following experimental groups were set:
# 100 μl of DMSO was added to each well, followed by shaking on a shaker for 30 min at 37° C., the absorbance (OD) was measured at 492 nm, and the MTT ratio was calculated as the OD value of drug group/OD value of negative control group.
# HepG2 = test: MTT test for inhibition of tumor cells, HepG2; assay type: cell-based; conditions: 48 h
# HL-7702 = test: MTT test on human normal hepatocytes HL-7702; assay type: cell-based; conditions: human normal hepatocytes HL-7702, MTT, 48 h
# H8 = test: IC50 against human cervical immortalized cells H8; conditions: for toxicity on normal cell line H8 compared with etoposide: vs etoposide
# A549 = test: IC50 against human lung cancer cell A549; assay type: cell-based; conditions: for antitumor activity on A549 compared with etoposide: vs etoposide
# HMEC = test: IC50 against human mammary epithelial cells HMEC; conditions: for toxicity on normal cell line HMEC compared with etoposide: vs etoposide
# MCF7 = test: IC50 against breast cancer cell MCF7; assay type: cell-based, human; conditions: vs etoposide
# MRC-5 = test: IC50 against human embryonic lung cells MRC-5; conditions: for toxicity on normal cell line MRC-5 compared with etoposide: vs etoposide
Compound,IC50 (HeLa) [µM],IC50 (HepG2) [µM],IC50 (HL-7702) [µM],also measured
"4β-S-(3-phenyl-1,3,4-thiadiazol-2(3H)thione potassium salt-5)-4′-demethylepipodophyllotoxin [Compound 26]",48.49 ± 0.38,5.7 ± 0.33,–,–
4β-S-(5-phenylbenzoxazol-2)-4′-demethylepipodophyllotoxin [Compound 12],> 100,10.2 ± 0.46,56.8 ± 1.32,–
4β-S-(6-chlorobenzoxazol-2)-4′-demethylepipodophyllotoxin [Compound 16],32.3 ± 1.87,22.3 ± 1.46,68.3 ± 4.5,–
"COc1cc(C2c3cc4c(cc3C(O)C3COC(=O)C23)OCO4)cc(OC)c1O (centres unmarked) [4′-Demethylepipodophyllotoxin, 4′-demethylepipodophyllotoxin, reference compound]",63.09 ± 0.49,49.32 ± 0.38,52.9 ± 0.85,–
"COc1cc([C@@H]2c3cc4c(cc3[C@@H](Sc3ccc(F)cc3)[C@H]3COC(=O)[C@H]23)OCO4)cc(OC)c1O [Compound 6, 4β-S-(4-fluorobenzene-1)-4′-demethylepipodophyllotoxin]",55.28 ± 0.21,4.24 ± 0.97,51 ± 0.88,–
"COc1cc([C@@H]2c3cc4c(cc3[C@@H](Sc3nc5cc(F)ccc5s3)[C@H]3COC(=O)[C@H]23)OCO4)cc(OC)c1O [Compound 8, 4β-S-(5-fluorobenzothiazol-2)-4′-demethylepipodophyllotoxin]",2.3 ± 0.12,1.49 ± 0.12,966.2 ± 7.31,toxicity on normal cell line H8 compared with etoposide (H8): significantly lower; antitumor activity on A549 compared with etoposide (A549): significantly improved; toxicity on normal cell line HMEC compared with etoposide (HMEC): significantly lower; antitumor activity on MCF7 compared with etoposide (MCF7): significantly improved; toxicity on normal cell line MRC-5 compared with etoposide (MRC-5): significantly lower
"COc1cc(C2c3cc4c(cc3C(Sc3nc5cc(F)ccc5o3)C3COC(=O)C23)OCO4)cc(OC)c1OC (stereo not drawn) [Compound 9, 4β-S-(5-Fluorobenzoxazol-2)-podophyllotoxin]",–,–,> 1000,–
"COc1cc([C@@H]2c3cc4c(cc3[C@@H](Sc3nc5cc(F)ccc5o3)[C@H]3COC(=O)[C@H]23)OCO4)cc(OC)c1O [Compound 10, 4β-S-(5-fluorobenzoxazol-2)-4′-demethylepipodophyllotoxin]",1.49 ± 0.14,1.55 ± 0.29,2000 ± 12.8,"IC50 (H8; read-out: IC50 H8, normal cell line, human cervical immortalized cells H8): 518.9 ± 1.9 µM; toxicity on normal cell line H8 compared with etoposide (H8): significantly lower; IC50 (A549; human lung cancer cell A549): 2.34 ± 0.16 µM; antitumor activity on A549 compared with etoposide (A549): significantly improved; IC50 (HMEC; read-out: IC50 HMEC, normal cell line, human mammary epithelial cells HMEC): 323.4 ± 3.21 µM; toxicity on normal cell line HMEC compared with etoposide (HMEC): significantly lower; antitumor activity on MCF7 compared with etoposide (MCF7): significantly improved; IC50 (MRC-5; read-out: IC50 MRC-5, normal cell line, human embryonic lung cells MRC-5): 348.9 ± 3.1 µM; toxicity on normal cell line MRC-5 compared with etoposide (MRC-5): significantly lower"
"COc1cc([C@@H]2c3cc4c(cc3[C@@H](Sc3ccc5ccccc5c3)[C@H]3COC(=O)[C@H]23)OCO4)cc(OC)c1O [Compound 20, 4β-S-(naphthalen-2)-4′-demethylepipodophyllotoxin]",5.54 ± 0.3,6.02 ± 0.25,76.8 ± 2.11,–
"COc1cc([C@@H]2c3cc4c(cc3[C@@H](Sc3nc5ncccc5[nH]3)[C@H]3COC(=O)[C@H]23)OCO4)cc(OC)c1O [Compound 22, 4β-S-(1H-imidazo[4,5-B]pyridin-2)-4′-demethylepipodophyllotoxin]",> 100,8.31 ± 0.43,33.5 ± 3.25,–
"COc1cc([C@@H]2c3cc4c(cc3[C@@H](Sc3nnnn3-c3ccccc3)[C@H]3COC(=O)[C@H]23)OCO4)cc(OC)c1O [Compound 24, 4β-S-(1-phenyltetrazol-5)-4′-demethylepipodophyllotoxin]",9.73 ± 0.11,59.69 ± 0.31,71 ± 3.67,–
